Laboratory results: patent US20250041204A1, “COMPOSITION COMPRISING LACTOBACILLUS CRISPATUS BACTERIAL LYSATES AND/OR BACTERIA FOR IMPROVING SKIN CONDITION” (BIOTIX PTE LTD, priority 2021, published 2025)

Assays:
[1] = test system: primary adult keratinocytes (NHEK); experiment: In vitro irritation model (SDS, MTT survival); format: cell-based; conditions: for protection of keratinocytes from SDS induced cell damage: in vitro irritant test, comparison of active principles
Experimental: Next, the functional effects of L. Crispatus in keratinocytes was investigated using an in vitro irritation model using primary adult keratinocytes (NHEK).
Primary keratinocytes from passage 2 to 3 were cultured in 96 well plates at a seed concentration of 7,000 cells/well and cultured in complete keratinocyte medium. […] After 2 hours pre incubation, cells were treated with SDS. 2 hours later MTT was added to the culture and incubated for further 2 hours for a total incubation time of 6 hours. After incubation, the MTT assay was developed according to manufacturing instruction and O.D was measured in a 96 well plate reader to determine the survival rate of the keratinocytes.

[2] = test system: skin of healthy volunteers; experiment: Skin irritant test in healthy volunteers (occlusive plaster on forearm); format: in vivo, human; conditions: SDS 4% in PBS alone, 24 hours occlusion
Experimental: The same amount of each solution was applied to a plaster with a dimension of 1 cm^2. The plasters containing the solutions were then applied on the forearm of healthy donors in occlusion to increase penetration of the solution into the skin. 24 hours after application, the plasters were removed, pictures were recorded and irritation was evaluated by blinded dermatologists.

Compound	protection of keratinocytes from SDS induced cell damage [1]	skin inflammation (erythema and immune cell infiltration) [2]	survival rate ([1]; SDS alone, 6 to 8 hours incubation, MTT)
CC(C)(CO)[C@@H](O)C(=O)NCCCO [Panthenol]	not any other active principle protected	–	–
Ceramides	not any other active principle protected	–	–
CCCCCCCCCCCCOS(=O)(=O)[O-].[Na+] [SDS]	–	induced skin inflammation in all the individuals	0%
